Activity calls are given as the source filed them.
What was measured:
[1] = target: Nonstructural protein 1 (Influenza A virus, UniProt Q194T2); format: functional, Influenza A virus (A/California/07/2009(H1N1))
[2] = NIH-3T3 fibroblast cytotoxicity, dose response, cytotoxicity control, cell-based, fluorescence, Alamar Blue, secondary assay (AID 2327); format: functional;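 further: NIH-3T3 mouse fibroblasts cultured with fluconazole at 8 µg/mL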
[3] = C. albicans growth with fluconazole, confirmation, fluorescence, retest (AID 2467); format: functional, cell-based
[4] = enhancers of respiration in Yfh1-depleted yeast, dose response, Friedreich's ataxia, plus single-dose screen (AID 1465); format: functional;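 further: yeast depleted of Yfh1p frataxin homolog grown on glycerol needing respiration; WST-1 tetrazolium dye reduction as measure of cellular dehydrogenase metabolic activity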
[5] = test system: INS1; assay: beta cell apoptosis inhibitors, cytokine rescue, dose response, luminescence, retest (AID 449756); format: functional, cell-based; settings: Rattus norvegicus;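 further: cell death triggered by IL-1 beta plus TNF-alpha plus IFN-gamma mixture; protective hits raise ATP signal compared with cytokine alone wells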
[6] = target: T1, Ion channel NompC (Danio rerio, UniProt Q7T1G6); assay: Late stage counterscreen for the probe development effort to identify selective agonists of the Transient Receptor Potential Channels 3 (TRPML3): fluorescence-based cell-based dose response assay for TRPN1 agonists.; format: functional
T1 sequence (Q7T1G6 whole entry): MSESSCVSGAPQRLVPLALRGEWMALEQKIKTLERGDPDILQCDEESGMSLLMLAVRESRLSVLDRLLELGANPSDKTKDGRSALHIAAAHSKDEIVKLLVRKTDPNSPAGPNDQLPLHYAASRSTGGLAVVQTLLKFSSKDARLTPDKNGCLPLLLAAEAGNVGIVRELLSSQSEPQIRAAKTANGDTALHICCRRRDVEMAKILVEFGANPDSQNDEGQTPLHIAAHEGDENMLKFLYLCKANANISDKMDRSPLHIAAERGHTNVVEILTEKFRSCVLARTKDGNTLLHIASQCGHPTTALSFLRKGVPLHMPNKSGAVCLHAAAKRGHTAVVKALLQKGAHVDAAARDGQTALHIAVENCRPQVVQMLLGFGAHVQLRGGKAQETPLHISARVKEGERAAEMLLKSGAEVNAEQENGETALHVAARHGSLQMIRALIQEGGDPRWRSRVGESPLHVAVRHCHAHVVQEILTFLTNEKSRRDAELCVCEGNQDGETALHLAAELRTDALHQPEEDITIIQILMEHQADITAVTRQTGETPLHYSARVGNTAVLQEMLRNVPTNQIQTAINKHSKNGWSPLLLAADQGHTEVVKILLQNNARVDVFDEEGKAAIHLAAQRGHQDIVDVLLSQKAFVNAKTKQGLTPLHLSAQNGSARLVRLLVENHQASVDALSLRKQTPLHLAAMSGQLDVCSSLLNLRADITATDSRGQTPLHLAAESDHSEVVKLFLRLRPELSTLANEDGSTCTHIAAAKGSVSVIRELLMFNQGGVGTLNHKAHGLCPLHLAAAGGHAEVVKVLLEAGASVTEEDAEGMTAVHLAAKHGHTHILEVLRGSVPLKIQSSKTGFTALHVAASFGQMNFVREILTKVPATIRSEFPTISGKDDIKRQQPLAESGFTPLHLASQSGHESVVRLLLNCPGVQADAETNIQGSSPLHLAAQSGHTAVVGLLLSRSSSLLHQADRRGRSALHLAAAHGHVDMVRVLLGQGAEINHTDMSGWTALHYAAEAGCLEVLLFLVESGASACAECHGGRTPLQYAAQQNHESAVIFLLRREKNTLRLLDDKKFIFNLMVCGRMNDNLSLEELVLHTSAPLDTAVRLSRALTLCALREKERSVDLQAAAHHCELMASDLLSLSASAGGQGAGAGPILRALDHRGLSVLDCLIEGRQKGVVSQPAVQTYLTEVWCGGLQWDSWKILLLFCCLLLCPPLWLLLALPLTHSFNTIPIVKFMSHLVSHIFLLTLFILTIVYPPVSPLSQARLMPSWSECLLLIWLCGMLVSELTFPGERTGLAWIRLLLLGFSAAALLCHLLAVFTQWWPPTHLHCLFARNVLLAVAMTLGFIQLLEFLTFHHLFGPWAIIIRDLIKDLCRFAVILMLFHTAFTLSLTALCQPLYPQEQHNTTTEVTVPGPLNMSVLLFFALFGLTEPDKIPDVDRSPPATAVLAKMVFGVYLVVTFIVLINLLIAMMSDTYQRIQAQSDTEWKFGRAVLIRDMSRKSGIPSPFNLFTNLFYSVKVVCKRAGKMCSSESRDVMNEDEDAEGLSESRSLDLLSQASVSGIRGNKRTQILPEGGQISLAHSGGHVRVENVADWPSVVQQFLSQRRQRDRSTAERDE

[7] = target: T1, Ion channel NompC; assay: Fluorescence counterscreen assay for TRPML3 agonists: dose response cell-based high-throughput screening assay to identify agonists of the transient receptor potential channel N1 (TRPN1). [Related pubchem assays: 1526, 1424, 1448 ]; format: functional
[8] = target: T2, Calpain-2 catalytic subunit (Sus scrofa, UniProt P43367); assay: pig calpain II inhibitor potency, dose response, biochemical, fluorogenic peptide substrate (AID 1420); format: functional
T2 sequence (P43367 whole entry): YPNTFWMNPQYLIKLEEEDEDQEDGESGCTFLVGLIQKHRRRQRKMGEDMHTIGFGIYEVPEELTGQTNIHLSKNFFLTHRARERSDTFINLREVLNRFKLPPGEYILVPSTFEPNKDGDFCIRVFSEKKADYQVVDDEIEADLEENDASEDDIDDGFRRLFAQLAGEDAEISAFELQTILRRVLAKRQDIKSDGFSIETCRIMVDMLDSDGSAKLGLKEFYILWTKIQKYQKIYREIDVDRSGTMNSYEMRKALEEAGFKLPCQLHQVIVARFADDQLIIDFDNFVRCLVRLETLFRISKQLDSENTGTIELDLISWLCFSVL

[9] = target: Mucolipin-3 (Homo sapiens, UniProt Q8TDD5); assay: Dose response cell-based high-throughput screening assay for agonists of the transient receptor potential channel ML3 (TRPML3). [Related pubchem assays: 1526, 1424, 1448 ]; format: functional
Chain of Mucolipin-3 (Q8TDD5 whole entry): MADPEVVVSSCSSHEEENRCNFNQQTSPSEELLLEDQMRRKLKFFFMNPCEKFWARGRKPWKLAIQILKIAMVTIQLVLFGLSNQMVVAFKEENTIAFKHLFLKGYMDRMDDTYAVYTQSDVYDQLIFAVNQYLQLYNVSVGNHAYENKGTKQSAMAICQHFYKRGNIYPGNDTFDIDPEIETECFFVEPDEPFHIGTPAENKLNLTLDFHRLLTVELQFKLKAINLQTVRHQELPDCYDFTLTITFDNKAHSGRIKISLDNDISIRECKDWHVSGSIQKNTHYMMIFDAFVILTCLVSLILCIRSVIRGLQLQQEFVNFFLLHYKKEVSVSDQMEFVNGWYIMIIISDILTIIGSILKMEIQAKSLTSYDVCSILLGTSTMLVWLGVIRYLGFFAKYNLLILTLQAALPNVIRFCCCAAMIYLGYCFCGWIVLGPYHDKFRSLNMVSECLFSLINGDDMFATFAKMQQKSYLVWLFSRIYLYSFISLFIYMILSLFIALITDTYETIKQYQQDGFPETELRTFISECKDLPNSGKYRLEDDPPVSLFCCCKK

[10] = cells
[11] = A Cell Based Secondary Assay To Explore Cytotoxicity of Compounds that Sensitize Mycobacterium Tuberculosis to Beta-Lactam Antibiotics.; format: functional
[12] = target: T3, Replicative DNA helicase DnaB (Mycobacterium tuberculosis, UniProt P9WMR3); assay: DnaB intein splicing inhibitors, dose response, biochemical, cell-free fluorescence (AID 449749); format: functional
T3 sequence (P9WMR3 whole entry): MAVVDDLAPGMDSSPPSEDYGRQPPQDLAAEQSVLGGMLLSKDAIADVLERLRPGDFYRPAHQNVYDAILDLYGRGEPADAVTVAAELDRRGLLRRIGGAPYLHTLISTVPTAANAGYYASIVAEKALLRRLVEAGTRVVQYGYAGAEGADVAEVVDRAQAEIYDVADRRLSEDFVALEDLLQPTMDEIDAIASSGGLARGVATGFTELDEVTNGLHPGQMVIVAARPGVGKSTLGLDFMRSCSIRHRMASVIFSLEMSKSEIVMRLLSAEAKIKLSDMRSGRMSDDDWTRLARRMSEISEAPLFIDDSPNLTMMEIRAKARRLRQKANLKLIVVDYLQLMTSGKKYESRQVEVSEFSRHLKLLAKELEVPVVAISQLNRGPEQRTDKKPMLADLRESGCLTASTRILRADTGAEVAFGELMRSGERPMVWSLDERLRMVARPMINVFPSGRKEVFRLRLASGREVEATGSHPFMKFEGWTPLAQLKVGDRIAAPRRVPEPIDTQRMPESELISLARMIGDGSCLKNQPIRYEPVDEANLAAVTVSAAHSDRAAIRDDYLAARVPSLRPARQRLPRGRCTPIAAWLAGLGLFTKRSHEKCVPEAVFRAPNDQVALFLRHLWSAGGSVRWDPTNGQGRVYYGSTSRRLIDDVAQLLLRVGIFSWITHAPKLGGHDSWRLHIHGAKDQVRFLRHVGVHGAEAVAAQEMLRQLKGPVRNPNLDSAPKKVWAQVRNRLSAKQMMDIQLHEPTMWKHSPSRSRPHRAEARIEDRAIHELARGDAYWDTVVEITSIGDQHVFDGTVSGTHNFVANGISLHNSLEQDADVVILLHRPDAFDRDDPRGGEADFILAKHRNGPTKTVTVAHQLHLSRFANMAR

[13] = Luminescence Cell-Based Dose Retest to Confirm Inhibitors of Cancer Stem Cells. [Related pubchem assays (depositor defined):AID2717, AID2721]; format: functional; settings: Homo sapiens
[14] = HIV-1 Env-mediated cell fusion inhibitors, dose response, CCR5-tropic Env (AID 2279); format: functional
[15] = target: T4, Protein RecA (Mycobacterium tuberculosis, UniProt P9WHJ3); assay: Fluorescence Cell-Free Homogeneous Dose Retest to Identify Inhibitors of RecA-Intein Splicing Activity. [Related pubchem assays (depositor defined):AID2097, AID2223, AID489010, AID492950]; format: functional
T4 sequence (P9WHJ3 whole entry): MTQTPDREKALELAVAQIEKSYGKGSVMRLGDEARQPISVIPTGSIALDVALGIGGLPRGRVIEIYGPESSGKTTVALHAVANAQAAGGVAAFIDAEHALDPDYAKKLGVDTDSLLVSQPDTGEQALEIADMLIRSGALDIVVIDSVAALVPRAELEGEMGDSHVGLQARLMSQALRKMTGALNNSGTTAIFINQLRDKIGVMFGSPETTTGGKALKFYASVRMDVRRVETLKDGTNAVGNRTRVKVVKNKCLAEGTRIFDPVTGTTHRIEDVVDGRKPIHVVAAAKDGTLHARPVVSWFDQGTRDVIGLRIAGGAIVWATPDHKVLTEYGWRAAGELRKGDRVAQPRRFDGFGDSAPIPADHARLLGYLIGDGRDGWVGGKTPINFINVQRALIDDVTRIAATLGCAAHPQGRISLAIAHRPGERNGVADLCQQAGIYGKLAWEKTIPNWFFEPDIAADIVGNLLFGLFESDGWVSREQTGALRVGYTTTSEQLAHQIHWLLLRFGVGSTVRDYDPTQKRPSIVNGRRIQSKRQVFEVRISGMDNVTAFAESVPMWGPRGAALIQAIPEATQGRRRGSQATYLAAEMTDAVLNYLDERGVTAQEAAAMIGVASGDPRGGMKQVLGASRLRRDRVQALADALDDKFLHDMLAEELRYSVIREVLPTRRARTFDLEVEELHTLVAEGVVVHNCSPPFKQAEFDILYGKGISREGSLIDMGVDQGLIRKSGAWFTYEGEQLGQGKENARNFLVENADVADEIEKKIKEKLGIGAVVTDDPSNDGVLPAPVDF

[16] = inhibitors of intracellular T. cruzi replication, confirmation, NIH3T3 host cells, beta-gal luminescence (AID 2044); format: functional, cell-based;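 further: intracellular parasites grown in NIH/3T3 mouse fibroblasts as host cells; luminescent beta-galactosidase reporter signal from transgenic T. cruzi replicating inside host cells; inhibitors lower the luminescence signal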
[17] = target: T5, Neuropeptide Y receptor type 1 (Homo sapiens, UniProt P25929); format: functional;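 further: HEK293 cells with a CNG channel challenged with NPY then isoproterenol; potency as antagonist that reverses NPY suppression of cAMP signal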
T5 sequence (P25929 whole entry): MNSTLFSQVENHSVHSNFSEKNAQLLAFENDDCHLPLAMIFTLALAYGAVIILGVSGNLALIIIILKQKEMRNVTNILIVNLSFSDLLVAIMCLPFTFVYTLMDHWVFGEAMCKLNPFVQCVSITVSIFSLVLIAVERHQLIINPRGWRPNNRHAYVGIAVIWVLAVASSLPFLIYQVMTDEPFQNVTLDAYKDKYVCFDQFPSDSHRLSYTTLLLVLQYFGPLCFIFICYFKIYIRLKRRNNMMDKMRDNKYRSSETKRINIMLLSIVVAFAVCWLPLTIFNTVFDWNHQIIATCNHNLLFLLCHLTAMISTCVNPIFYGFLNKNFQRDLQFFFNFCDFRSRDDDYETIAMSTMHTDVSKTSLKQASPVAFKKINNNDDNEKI

[18] = cytotoxicity toward NIH3T3 fibroblasts, dose response, counter-screen, cell-based, ATP luminescence, mouse fibroblasts (AID 2010); format: functional;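 further: cells exposed to compound for about 90 hours before reading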
[19] = target: T6, Neuropeptide Y receptor type 2 (Homo sapiens, UniProt P49146); format: functional, cell-based;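 further: HEK293 cells expressing the receptor and a CNG channel; stimulus was NPY near EC95 followed by isoproterenol to raise cAMP; antagonist potency measured as restoring cAMP signal that NPY suppresses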
T6 sequence (P49146 whole entry): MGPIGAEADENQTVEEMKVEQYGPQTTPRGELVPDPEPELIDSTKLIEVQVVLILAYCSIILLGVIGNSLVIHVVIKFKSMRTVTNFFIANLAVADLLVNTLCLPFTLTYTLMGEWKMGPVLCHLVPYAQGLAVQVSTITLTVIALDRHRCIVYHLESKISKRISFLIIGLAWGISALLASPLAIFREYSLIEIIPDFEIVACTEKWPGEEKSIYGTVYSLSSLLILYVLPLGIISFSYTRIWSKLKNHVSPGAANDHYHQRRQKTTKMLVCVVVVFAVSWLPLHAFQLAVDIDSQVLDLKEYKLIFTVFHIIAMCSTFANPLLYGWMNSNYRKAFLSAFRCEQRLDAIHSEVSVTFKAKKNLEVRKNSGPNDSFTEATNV

[20] = Luminescence-based counterscreen assay for KLF5 inhibitors: dose response cell-based high throughput screening assay to identify cytotoxic compounds using the IEC-6 intestinal epithelial cell line. [Related pubchem assays: 1700 (Primary screen.), 1834 (Confirmation screen.), 1858 (Summary AID.), 1905 (Counterscreen.)]; format: functional
[21] = test system: HeLa; assay: Cytotoxicity counterscreen assay for transcriptional activators of heat shock protein 70 (Hsp70). [Related pubchem assays: 1203, 1252 ]; format: functional; settings: Homo sapiens;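 further: cells exposed to compound for 16 hours before readout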
[22] = target: T6, Neuropeptide Y receptor type 2; assay: NPY-Y2 antagonist potency, selectivity check, dose response, counter-screen for NPY-Y1 antagonist project, cell-based (AID 1278); format: functional
[23] = target: T5, Neuropeptide Y receptor type 1; assay: NPY-Y1 receptor antagonist potency, dose response, cell-based (AID 1277); format: functional
[24] = target: T7, Rac GTPase-activating protein 1 (Homo sapiens, UniProt Q9H0H5); assay: MgcRacGAP GTPase-activating activity inhibitors, confirmation, biochemical, ADP Hunter fluorescence, primary and confirmatory (AID 624330); format: functional
T7 sequence (Q9H0H5 whole entry): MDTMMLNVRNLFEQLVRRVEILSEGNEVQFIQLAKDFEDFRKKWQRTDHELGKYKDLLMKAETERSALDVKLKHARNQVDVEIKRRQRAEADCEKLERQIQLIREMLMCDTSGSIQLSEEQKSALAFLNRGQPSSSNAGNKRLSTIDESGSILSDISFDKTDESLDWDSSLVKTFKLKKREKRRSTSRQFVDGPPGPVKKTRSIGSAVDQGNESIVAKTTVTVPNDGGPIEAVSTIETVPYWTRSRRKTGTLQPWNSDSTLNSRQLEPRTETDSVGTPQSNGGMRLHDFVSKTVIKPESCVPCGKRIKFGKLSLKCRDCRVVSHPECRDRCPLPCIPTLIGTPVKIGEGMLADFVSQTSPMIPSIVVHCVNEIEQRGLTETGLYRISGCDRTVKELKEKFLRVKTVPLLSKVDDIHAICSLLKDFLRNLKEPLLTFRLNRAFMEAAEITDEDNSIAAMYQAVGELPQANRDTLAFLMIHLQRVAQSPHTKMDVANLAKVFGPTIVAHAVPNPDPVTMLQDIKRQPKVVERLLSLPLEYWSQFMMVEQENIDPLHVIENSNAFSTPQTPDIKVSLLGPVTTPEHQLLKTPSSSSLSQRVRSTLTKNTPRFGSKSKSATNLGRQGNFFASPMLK

[25] = target: T8, Carboxy-terminal domain RNA polymerase II polypeptide A small phosphatase 1 (Homo sapiens, UniProt Q9GZU7); assay: inhibitors of CTDSP1, concentration-response testing, biochemical assay, absorbance-based, actives from ultra-high-throughput screening (AID 540297); format: functional
T8 sequence (Q9GZU7 whole entry): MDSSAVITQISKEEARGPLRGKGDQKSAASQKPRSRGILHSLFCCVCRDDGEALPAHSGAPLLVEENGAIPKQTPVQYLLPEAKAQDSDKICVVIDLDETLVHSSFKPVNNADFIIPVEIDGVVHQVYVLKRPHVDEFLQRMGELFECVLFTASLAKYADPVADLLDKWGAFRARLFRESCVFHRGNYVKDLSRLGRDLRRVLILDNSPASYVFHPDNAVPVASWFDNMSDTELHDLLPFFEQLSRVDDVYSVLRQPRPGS

[26] = target: NS3 (Hepatitis C virus, UniProt A3EZJ3); assay: PubChem AID 2173; parameters: species or system Hepacivirus hominis
Chain of NS3 (A3EZJ3 whole entry): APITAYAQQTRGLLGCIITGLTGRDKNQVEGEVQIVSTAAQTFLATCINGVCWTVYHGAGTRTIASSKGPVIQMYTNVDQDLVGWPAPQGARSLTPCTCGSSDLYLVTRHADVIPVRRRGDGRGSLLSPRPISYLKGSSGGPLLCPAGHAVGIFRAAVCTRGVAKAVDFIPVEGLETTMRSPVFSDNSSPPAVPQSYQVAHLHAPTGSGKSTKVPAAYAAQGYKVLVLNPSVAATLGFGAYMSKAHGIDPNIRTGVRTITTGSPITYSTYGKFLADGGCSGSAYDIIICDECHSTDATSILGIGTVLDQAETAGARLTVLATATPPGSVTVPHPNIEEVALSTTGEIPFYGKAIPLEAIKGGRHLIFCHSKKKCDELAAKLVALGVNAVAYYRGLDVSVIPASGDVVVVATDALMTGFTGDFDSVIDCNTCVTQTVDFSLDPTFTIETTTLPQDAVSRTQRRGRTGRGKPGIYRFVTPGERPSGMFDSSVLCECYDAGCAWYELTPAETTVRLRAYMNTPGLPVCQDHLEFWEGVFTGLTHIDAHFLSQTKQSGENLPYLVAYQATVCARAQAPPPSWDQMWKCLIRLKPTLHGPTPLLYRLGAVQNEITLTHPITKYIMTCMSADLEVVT

Chain of Nonstructural protein 1 (Q194T2 whole entry): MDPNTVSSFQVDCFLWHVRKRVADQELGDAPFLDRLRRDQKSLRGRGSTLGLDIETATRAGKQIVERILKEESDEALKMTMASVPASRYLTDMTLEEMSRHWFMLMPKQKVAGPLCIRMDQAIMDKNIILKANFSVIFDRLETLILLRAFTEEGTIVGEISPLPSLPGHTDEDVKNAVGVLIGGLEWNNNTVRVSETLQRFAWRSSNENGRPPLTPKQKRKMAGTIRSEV

## Cc1ccc2cc(C3C(C#N)=C(N)Oc4c3ccc3cccnc43)c(O)nc2c1 (configuration not stated)
[1]
  IC50: 14.3 µM (active)
[2]
  EC50: > 150 µM (inactive)
[3]
  EC50: > 38 µM (not active)
[4]
  EC50: > 100 µM (active)
[5]
  AC50: 1.02 µM (active)

## CCOc1ccc(S(=O)(=O)N2CCCCC2)c(C)c1C
[6]
  EC50: > 29.9 µM (not active)
[7]
  EC50: > 29.9 µM (not active)
[8]
  IC50: 32.6 µM (not active)
[9]
  EC50: 1.43 µM (active)

## O=C(CCCn1c(=O)c2sccc2n(Cc2cc(=O)n3ccccc3n2)c1=O)NCc1ccco1
[10]
  IC50: 36.6 µM (active)

## Cc1nn(CCc2nn[nH]n2)c2nc(-c3ccc(C4CCCCC4)cc3)cc(C(F)(F)F)c12
[11]
  CC50: 34.4 µM (active)
[12]
  AC50: 3.83 µM (active)
[13]
  AC50: 2.14 µM (active)
[14]
  IC50: 21.7 µM (active)
[15]
  EC50: 38.1 µM (active)

## CN1CCN(c2ccccc2NC(=O)c2ccc(-c3ccc(Cl)cc3Cl)o2)CC1
[16]
  EC50: 1.06 µM (active)
[17]
  IC50: 4.46 µM (active)
[18]
  EC50: > 60 µM (not active)
[13]
  AC50: 3.09 µM (active)
[19]
  IC50: > 12 µM (not active)

## COc1ccc(/C=N/NC(=O)CCn2c3ccccc3c3ccccc32)cc1O
[20]
  IC50: 2.02 µM (active)

## Cc1ccc(N=C(S)NC(NC(=O)c2ccccc2)C(Cl)(Cl)Cl)c(C)c1 (configuration not stated)
[21]
  CC50: 47 µM (not active)

## COc1ccc(Oc2c[nH]nc2-c2ccc(O)cc2O)cc1
[22]
  IC50: > 35 µM (not active)
[23]
  IC50: > 35 µM (not active)
[24]
  IC50: 28.3 µM (active)

## Cc1ccc(C(=O)O)cc1-c1ccc(/C=C2\SC(=O)N(CC(=O)Nc3ccccc3)C2=O)o1
[25]
  IC50: 2.75 µM (active)
[26]
  IC50: 5.39 µM (active)
